For one molecule, inhibition results are on record in patent publication US20120270237A9, “METHODS FOR THE IDENTIFICATION OF KINASE INTERACTING MOLECULES AND FOR THE PURIFICATION OF KINASE PROTEINS” (Cellzone AG, priority 2009, published 2012).

Experiment in all cases: Kinobeads competition binding, L-363 cell lysate
Design in all cases: endogenous in cells; host or cells: L-363 (MG132-treated)
What all share (settings): 10 μM free compound, L-363 lysate

The target of assay [1] is PAK4 (Homo sapiens, UniProt O96013). As to the method:
(§1) To one aliquot of cell lysate 10 μM of the free compound (FIG. 3, CZC31326) was added and allowed to bind to proteins in the lysate. Then the affinity matrix with the immobilized compound was added to capture proteins that were not interacting with the previously added free compound. Beads were separated from the lysate and bead bound proteins were eluted in SDS sample buffer and subsequently separated by SDS-Polyacrylamide gel electrophoresis (FIG. 8). Suitable gel bands were cut out and subjected to in-gel proteolytic digestion with trypsin. The second lysate aliquot was processed identically, however no free compound was added (DMSO solvent control). Peptides originating from samples 1 and 2 were labeled with iTRAQ reagents (iTRAQ 114 and iTRAQ 117) and the combined samples were analyzed with a nano-flow liquid chromatography system coupled online to a tandem mass spectrometer (LC-MS/MS) experiment followed by iTRAQ reporter ion quantification in the MS/MS spectra as described in Example 2.
(§2) For this experiment the human plasma cell leukaemia line L-363 was used (German Collection of Microorganisms and Cell Cultures, DSMZ number ACC49, Braunschweig, Germany). Cells were treated for three hours with 20 μM of the proteasome inhibitor MG132 (Z-Leu-Leu-Leu-al, Sigma C2211) prior to cell harvesting.

Assay [2] has as its target T1, NEK9 (Homo sapiens, UniProt Q8TD19).
T1 sequence (Q8TD19 1-979): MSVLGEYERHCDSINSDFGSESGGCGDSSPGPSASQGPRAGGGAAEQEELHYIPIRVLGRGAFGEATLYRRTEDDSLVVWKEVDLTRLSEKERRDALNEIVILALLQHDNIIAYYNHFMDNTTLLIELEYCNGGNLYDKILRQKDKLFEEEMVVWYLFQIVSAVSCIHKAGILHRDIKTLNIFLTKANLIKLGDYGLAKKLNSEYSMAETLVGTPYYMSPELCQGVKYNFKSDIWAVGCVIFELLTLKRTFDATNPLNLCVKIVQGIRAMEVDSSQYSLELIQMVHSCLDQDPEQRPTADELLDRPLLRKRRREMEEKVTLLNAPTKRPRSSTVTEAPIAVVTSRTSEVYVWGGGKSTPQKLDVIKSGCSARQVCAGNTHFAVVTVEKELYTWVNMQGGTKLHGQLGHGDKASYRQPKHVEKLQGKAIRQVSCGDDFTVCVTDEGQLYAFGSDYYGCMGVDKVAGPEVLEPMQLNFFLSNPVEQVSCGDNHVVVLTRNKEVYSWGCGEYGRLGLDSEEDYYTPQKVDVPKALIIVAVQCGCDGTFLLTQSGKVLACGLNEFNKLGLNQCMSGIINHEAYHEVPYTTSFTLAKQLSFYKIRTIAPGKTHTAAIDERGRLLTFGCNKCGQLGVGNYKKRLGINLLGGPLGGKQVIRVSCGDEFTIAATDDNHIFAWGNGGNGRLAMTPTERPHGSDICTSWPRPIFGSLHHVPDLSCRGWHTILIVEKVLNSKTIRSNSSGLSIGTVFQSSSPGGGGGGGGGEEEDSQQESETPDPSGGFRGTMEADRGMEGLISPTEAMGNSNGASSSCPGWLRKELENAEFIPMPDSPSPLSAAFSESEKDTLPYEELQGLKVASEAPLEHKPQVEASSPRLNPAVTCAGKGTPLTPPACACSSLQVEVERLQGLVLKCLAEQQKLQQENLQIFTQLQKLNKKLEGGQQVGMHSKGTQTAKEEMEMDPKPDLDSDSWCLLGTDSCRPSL
As to the method: as §1, §2

Assay [3] has as its target T2, NEK3 (Homo sapiens, UniProt P51956).
T2 sequence (P51956 1-506): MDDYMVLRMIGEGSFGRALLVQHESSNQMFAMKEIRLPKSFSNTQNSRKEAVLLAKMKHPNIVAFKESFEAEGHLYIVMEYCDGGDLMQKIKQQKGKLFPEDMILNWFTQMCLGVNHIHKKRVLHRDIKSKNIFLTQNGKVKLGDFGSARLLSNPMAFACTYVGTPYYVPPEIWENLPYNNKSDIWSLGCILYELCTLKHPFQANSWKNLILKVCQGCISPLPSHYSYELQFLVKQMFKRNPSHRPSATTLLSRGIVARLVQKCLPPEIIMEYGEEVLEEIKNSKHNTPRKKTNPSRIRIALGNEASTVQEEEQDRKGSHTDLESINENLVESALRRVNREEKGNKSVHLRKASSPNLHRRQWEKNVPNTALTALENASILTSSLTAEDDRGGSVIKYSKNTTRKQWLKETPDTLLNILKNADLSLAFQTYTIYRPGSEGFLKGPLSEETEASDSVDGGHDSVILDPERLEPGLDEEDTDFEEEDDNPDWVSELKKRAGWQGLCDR
As to the method:
as §1, §2

Sequence of PAK4 (O96013 whole entry): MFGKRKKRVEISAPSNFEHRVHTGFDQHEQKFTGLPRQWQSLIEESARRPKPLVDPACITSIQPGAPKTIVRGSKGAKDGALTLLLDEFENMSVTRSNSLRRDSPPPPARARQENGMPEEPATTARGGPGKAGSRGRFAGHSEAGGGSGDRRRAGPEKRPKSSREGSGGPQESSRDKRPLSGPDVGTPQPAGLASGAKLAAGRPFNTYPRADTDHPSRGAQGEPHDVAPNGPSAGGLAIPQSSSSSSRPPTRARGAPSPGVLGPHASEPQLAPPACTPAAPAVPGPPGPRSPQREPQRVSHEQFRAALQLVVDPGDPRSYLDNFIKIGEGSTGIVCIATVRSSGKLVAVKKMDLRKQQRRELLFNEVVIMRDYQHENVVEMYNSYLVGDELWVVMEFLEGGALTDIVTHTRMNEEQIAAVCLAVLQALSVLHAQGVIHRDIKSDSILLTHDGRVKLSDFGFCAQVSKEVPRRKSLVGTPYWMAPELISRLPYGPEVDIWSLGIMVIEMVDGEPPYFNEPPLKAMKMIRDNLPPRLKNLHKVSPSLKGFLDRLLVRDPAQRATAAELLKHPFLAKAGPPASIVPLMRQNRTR

For `CS(=O)(=O)Nc1ccccc1Nc1nc(Nc2cccc(OCCN)c2)ncc1Cl` [CZC31326, N-(2-(2-(3-(2-aminoethoxy)phenylamino)-5-chloropyrimidin-4-ylamino)phenyl)methanesulfonamide], the inhibition (commonly the percentage by which the read-out fell short of the control) at 10 µM in assay [1] worked out at 97.3%; in assay [2] it was 92.4%; in assay [3], 96.8%.
